Measured values as given in patent US10660334B2, “Fused bicyclic heterocycle derivatives as pesticides” (Bayer CropScience Aktiengesellschaft, priority 2016, dated 2020).

Columns and labels:
Ctenocephalides felis [1] = assay: Ctenocephalides felis in vitro contact test with adult cat fleas; format: in vivo; settings: application rate 5 μg/cm^2 (=500 g/ha), after 48 h
Description: Ctenocephalides felis—In Vitro Contact Tests with Adult Cat Fleas For the coating of the test tubes, 9 mg of active ingredient are first dissolved in 1 ml of acetone p.a. and then diluted to the desired concentration with acetone p.a. 250 μl of the solution are distributed homogeneously on the inner walls and the base of a 25 ml glass tube by turning and rocking on an orbital shaker (rocking rotation at 30 rpm for 2 h). With 900 ppm of active ingredient solution and internal surface area 44.7 cm^2, given homogeneous distribution, an area-based dose of 5 μg/cm^2 is achieved. After the solvent has evaporated off, the tubes are populated with 5-10 adult cat fleas (Ctenocephalides felis), sealed with a perforated plastic lid and incubated in a horizontal position at room temperature and ambient humidity. After 48 h, efficacy is determined. To this end, the tubes are stood upright and the fleas are knocked to the base of the tube. Fleas which remain motionless at the base or move in an uncoordinated manner are considered to be dead or moribund. […] 100% efficacy means that all the fleas were dead or moribund. 0% efficacy means that no fleas were harmed.

[2] = log P by HPLC on reversed-phase column (EEC Directive 79/831 Annex V.A8), acidic range; format: physicochemical; settings: reversed-phase C18 HPLC column; HPLC reversed-phase C18, 55° C., pH 2.7, 0.1% aqueous formic acid and acetonitrile; read-out: log P (HCOOH)
Description: The log P values are measured according to EEC Directive 79/831 Annex V.A8 by HPLC (high-performance liquid chromatography) on a reversed-phase column (C18). Temperature: 55° C. The LC-MS determination in the acidic range is effected at pH 2.7 with 0.1% aqueous formic acid and acetonitrile (containing 0.1% formic acid) as eluents; linear gradient from 10% acetonitrile to 95% acetonitrile. Called log P (HCOOH) in the table.

Ctenocephalides felis [3] = assay: Ctenocephalides felis oral test; format: in vivo; settings: application rate 100 ppm in citrated cattle blood, after 2 days, adult cat fleas
Description: Ctenocephalides felis—Oral Test Solvent: dimethyl sulfoxide To produce a suitable active ingredient formulation, 10 mg of active ingredient are mixed with 0.5 ml of dimethyl sulfoxide. Dilution with citrated cattle blood gives the desired concentration. About 20 unfed adult cat fleas (Cienocephalides felis) are placed into a chamber which is closed at the top and bottom with gauze. A metal cylinder whose bottom end is closed with parafilm is placed onto the chamber. The cylinder contains the blood/active ingredient formulation, which can be imbibed by the fleas through the parafilm membrane. After 2 days, the kill in % is determined. 100% means that all of the fleas have been killed; 0% means that none of the fleas have been killed.

Lucilia cuprina = Lucilia cuprina test; format: in vivo; settings: application rate 100 ppm, L1 larvae, after 2 days
Description: Lucilia cuprina Test Solvent: dimethyl sulfoxide To produce a suitable active ingredient formulation, 10 mg of active ingredient are mixed with 0.5 ml of dimethyl sulfoxide, and the concentrate is diluted with water to the desired concentration. About 20 L1 larvae of the Australian sheep blowfly (Lucilia cuprina) are transferred into a test vessel containing minced horsemeat and the active ingredient formulation of the desired concentration. After 2 days, the kill in % is determined. 100% means that all the larvae have been killed; 0% means that no larvae have been killed.

Musca domestica = Musca domestica test; format: in vivo; settings: application rate 100 ppm, adult houseflies, after 2 days
Description: Musca domestica Test Solvent: dimethyl sulfoxide To produce a suitable active ingredient formulation, 10 mg of active ingredient are mixed with 0.5 ml of dimethyl sulfoxide, and the concentrate is diluted with water to the desired concentration. Vessels containing a sponge treated with sugar solution and the active ingredient formulation of the desired concentration are populated with 10 adult houseflies (Musca domestica). After 2 days, the kill in % is determined. 100% means that all of the flies have been killed; 0% means that none of the flies have been killed.

Myzus persicae [4] = assay: Myzus persicae oral test; format: in vivo; settings: 120 h, application rate 4 ppm, after 5 days, read-out: efficacy (aphids killed)
Description: Myzus persicae—Oral Test Solvent: 100 parts by weight of acetone To produce a suitable active ingredient formulation, 1 part by weight of active ingredient is dissolved with the stated parts by weight of solvent and made up to the desired concentration with water. 50 μl of the active ingredient preparation are transferred into microtitre plates and made up to a final volume of 200 μl with 150 μl of IPL41 insect medium (33%+15% sugar). Subsequently, the plates are sealed with parafilm, which a mixed population of green peach aphids (Myzus persicae) within a second microtitre plate is able to puncture and imbibe the solution. After 5 days, the efficacy in % is determined. 100% means that all the aphids have been killed; 0% means that no aphids have been killed.

Myzus persicae [5] = assay: Myzus persicae spray test; format: in vivo; settings: foliar, 120 h, spray on Chinese cabbage leaf discs, after 5 days, read-out: efficacy (aphids killed); for pest or weed control at 20 g/ha: application rate 20 g/ha; for pest or weed control at 100 g/ha: application rate 100 g/ha
Description: Myzus persicae—Spray Test Solvent: 78 parts by weight of acetone • • 1.5 parts by weight of dimethylformamide Emulsifier: alkylaryl polyglycol ether To produce a suitable active ingredient formulation, 1 part by weight of active ingredient is dissolved with the specified parts by weight of solvent and made up to the desired concentration with water containing an emulsifier concentration of 1000 ppm. To produce further test concentrations, the formulation is diluted with emulsifier-containing water. Discs of Chinese cabbage leaves (Brassica pekinensis) infested by all stages of the green peach aphid (Myzus persicae) are sprayed with an active ingredient formulation of the desired concentration. After 5 days, the efficacy in % is determined. 100% means that all the aphids have been killed; 0% means that no aphids have been killed.

Tetranychus urticae = Tetranychus urticae spray test, OP-resistant; format: in vivo; settings: application rate 100 g/ha, spray on bean leaf discs, after 6 days
Description: Tetranychus urticae—Spray Test, OP-Resistant
(§1) Solvent: 78.0 parts by weight of acetone • • 1.5 parts by weight of dimethylformamide
(§2) Emulsifier: alkylaryl polyglycol ether
(§3) To produce a suitable active ingredient formulation, 1 part by weight of active ingredient is dissolved with the specified parts by weight of solvent and made up to the desired concentration with water containing an emulsifier concentration of 1000 ppm. To produce further test concentrations, the formulation is diluted with emulsifier-containing water.
Discs of bean leaves (Phaseolus vulgaris) infested with all stages of the greenhouse red spider mite (Tetranychus urticae) are sprayed with an active ingredient formulation of the desired concentration.
After 6 days, the efficacy in % is determined. 100% means that all the spider mites have been killed; 0% means that no spider mites have been killed.

Meloidogyne incognita = Meloidogyne incognita test; format: in vivo; settings: application rate 20 ppm, lettuce, after 14 days
Description: Meloidogyne incognita Test Solvent: 125.0 parts by weight of acetone To produce a suitable active ingredient formulation, 1 part by weight of active ingredient is mixed with the stated amount of solvent and the concentrate is diluted to the desired concentration with water. Vessels are filled with sand, active ingredient solution, an egg/larvae suspension of the southern root-knot nematode (Meloidogyne incognita) and lettuce seeds. The lettuce seeds germinate and the plants develop. The galls develop on the roots. After 14 days, the nematicidal efficacy in % is determined by the formation of galls. 100% means that no galls were found; 0% means that the number of galls on the treated plants corresponds to the untreated control.

Phaedon cochleariae = Phaedon cochleariae spray test; format: in vivo; settings: application rate 100 g/ha, spray on Chinese cabbage leaf discs, after 7 days
Description: Phaedon cochleariae—Spray Test
as §1, §2, §3
Discs of Chinese cabbage leaves (Brassica pekinensis) are sprayed with an active ingredient formulation of the desired concentration and, after drying, populated with larvae of the mustard beetle (Phaedon cochleariae).
After 7 days, the efficacy in % is determined. 100% means that all the beetle larvae have been killed; 0% means that no beetle larvae have been killed.

Spodoptera frugiperda = Spodoptera frugiperda spray test; format: in vivo; settings: application rate 100 g/ha, spray on maize leaf discs, after 7 days
Description: Spodoptera frugiperda—Spray Test Solvent: 78.0 parts by weight of acetone • • 1.5 parts by weight of dimethylformamide Emulsifier: alkylaryl polyglycol ether To produce a suitable active ingredient formulation, 1 part by weight of active ingredient is dissolved with the specified parts by weight of solvent and made up to the desired concentration with water containing an emulsifier concentration of 1000 ppm. To produce further test concentrations, the formulation is diluted with emulsifier-containing water. Leaf discs of maize (Zea mays) are sprayed with an active ingredient formulation of the desired concentration and, after drying, populated with caterpillars of the armyworm (Spodoptera frugiperda). After 7 days, the efficacy in % is determined. 100% means that all the caterpillars have been killed; 0% means that no caterpillar has been killed.

Boophilus microplus = Boophilus microplus injection test; format: in vivo; settings: application rate 20 μg/animal, injection into engorged adult female cattle ticks, after 7 days
Description: Boophilus microplus—Injection Test Solvent: dimethyl sulfoxide To produce a suitable active ingredient formulation, 10 mg of active ingredient are mixed with 0.5 ml of solvent and the concentrate is diluted to the desired concentration with solvent. 1 μl of the active ingredient solution is injected into the abdomen of 5 engorged adult female cattle ticks (Boophilus microplus). The animals are transferred into dishes and kept in a climate-controlled room. Efficacy is assessed after 7 days by laying of fertile eggs. Eggs which are not visibly fertile are stored in a climate-controlled cabinet until the larvae hatch after about 42 days. An efficacy of 100% means that none of the ticks has laid any fertile eggs; 0% means that all the eggs are fertile.

Compound	efficacy (fleas dead or moribund) (Ctenocephalides felis [1])	chromatographic logP [2]	efficacy (kill) (Ctenocephalides felis [3])	efficacy (kill) (Lucilia cuprina)	efficacy (kill) (Musca domestica)	pest or weed control at 4 ppm (Myzus persicae [4])	pest or weed control at 20 g/ha (Myzus persicae [5])	pest or weed control at 100 g/ha (Myzus persicae [5])	efficacy (spider mites killed) (Tetranychus urticae)	nematicidal efficacy (formation of galls) (Meloidogyne incognita)	efficacy (beetle larvae killed) (Phaedon cochleariae)	efficacy (caterpillars killed) (Spodoptera frugiperda)	efficacy (laying of fertile eggs) (Boophilus microplus)
CCSc1c(-c2nc3cc(C(F)(F)F)ncc3n2C)nc2n1CCCC2 [Example I-001, 2-(3-Ethylsulfanyl-5,6,7,8-tetrahydroimidazo[1,2-a]pyridin-2-yl)-3-methyl-6-(trifluoromethyl)imidazo[4,5-c]pyridine]	100%	2.37	–	–	–	–	–	–	–	–	–	–	–
CCS(=O)(=O)c1c(-c2nc3cc(C(F)(F)F)ncc3n2C)nc2n1CCC(C)C2 (stereo not shown) [Example I-007]	100%	–	80%	100%	100%	100%	100%	100%	–	–	–	–	–
CCS(=O)(=O)c1c(-c2nc3cc(C(F)(F)F)ncc3n2C)nc2n1CC(C(F)(F)F)CC2 (stereo not shown) [Example I-003]	–	–	–	–	–	100%	–	100%	90%	–	–	–	–
CCS(=O)(=O)c1c(-c2nc3cc(C(F)(F)F)cnc3n2C)nc2n1CCCC2 [Example I-011]	–	–	95%	100%	80%	100%	90%	90%	–	–	–	–	–
CCS(=O)(=O)c1c(-c2nc3cc(C(F)(F)C(F)(F)F)ncc3n2C)nc2n1CCCC2 [Example I-012]	–	–	100%	100%	–	100%	90%	90%	–	90%	100%	83%	–
CCS(=O)(=O)c1c(-c2nc3cc(C(F)(F)C(F)(F)F)cnc3n2C)nc2n1CCCC2 [Example I-017]	–	–	–	–	–	100%	90%	100%	–	–	–	100%	–
CCS(=O)(=O)c1c(-c2nc3cc(C(F)(F)F)ncc3n2C)nc2n1CC(C)CC2 (stereo not shown) [Example I-009]	–	–	80%	100%	100%	100%	90%	100%	–	–	–	–	100%
Cn1c(-c2nc3n(c2S(C)(=O)=O)CCCC3)nc2cc(C(F)(F)C(F)(F)F)ncc21 [Example I-013]	–	–	95%	100%	80%	100%	–	90%	–	–	83%	–	–
CCS(=O)(=O)c1c(-c2nc3cc(C(F)(F)F)ncc3n2C)nc2n1CCC(C(F)(F)F)C2 (stereo not shown) [Example I-010]	–	–	–	–	–	100%	90%	–	–	–	–	83%	–
